{"source": "patent US8067669B2", "about": "“Method for inducing resistance to fungal infection in transgenic plants using plant defense peptides” (The Curators Of The University Of Missouri, priority 2000, dated 2011)", "key": {"P. capsici zoospores [1]": {"tested_on": "P. capsici zoospores", "experiment": "Encystment assay with phage-displayed peptides", "type": "cell-based, Phytophthora capsici", "conditions": "phage 2.5×10^9 virion; 20 minute incubation at room temperature", "protocol": "Following binding, the pathogen is observed for alterations in its development or ability to infect a host. […] The range of phage concentrations can vary, but generally ranges between 1 to 10×10^9 virion/μl. A negative control containing no phage is included in each screening. After an incubation period of usually about 20 minutes at room temperature, the number of zoospores encysted at each phage concentration is determined. Using this method it is possible to rationally select peptides of defined character and evaluate them for species- and life stage-specific induction of receptor-mediated functional responses, such a zoospore encystment. Peptides found to interfere with the development of a pathogen can be used to prevent or limit infection of a host with the pathogen.\nSelected phage clones were isolated according to Smith and Scott (Methods in Enzymology, 217:228-257, 1993), and twice purified using polyethylene glycol as described above with the exception that phage were resuspended in distilled water instead of TBS. The virion concentration was calculated by measuring the absorbance at A269 (Smith and Scott, Methods in Enzymology, 217:228-257, 1993). Water droplets of approximately 20 μl containing about 400 freshly released zoospores were incubated with phage at two-fold serial dilutions so that they contained phage-bearing peptides at concentrations of either 1×10^10, 5×10^9, 2.5×10^9 or 1.25×10^9 virion/μl of droplet. A negative control received no phage and was used to monitor the amount of spontaneous encystment in the zoospore population. After a 20 minute incubation at room temperature, the number of encysted zoospores was counted using a microscope at 100× magnification. The virion concentration of phage was calculated according to Smith and Scott (Methods in Enzymology, 217:228-257, 1993)."}, "P. capsici zoospores [2]": {"tested_on": "P. capsici zoospores", "experiment": "Binding of phage-displayed peptides to zoospores (eluted phage titered as TU)", "parameters": "species or system Phytophthora capsici", "conditions": "5×10^10 TU phage with 200,000 zoospores, 30 minutes incubation", "protocol": "An aliquot of 10^11 transducing units (TU) from the f8-1 library (Petrinko et al., Protein Engineering, 9:797-801, 1996) was added to 10^6 freshly released P. capsici zoospores at room temperature in 4 ml of 50 mM LiCl and incubated for 30 minutes at room temperature with gentle agitation. The same procedure was used for the 188-4 library except in some cases P. sojae zoospores were used (Soj clones). The zoospores containing the bound phage were washed 10 times in 150 μl of 50 mM LiCl and centrifuged at 1000×g for 45 seconds to remove unbound phage. After the tenth wash, the bound phage were eluted with 200 μl of elution buffer (0.1 N HCl, glycine sufficient to bring pH to 2.2, 1 mg/ml bovine serum albumin). […] Selective enrichment of the zoospore-binding phage was monitored by calculating the percent yield after each round of selection as described in Smith and Scott (Methods in Enzymology, 217:228-257, 1993). This was done by calculating the total phage (expressed as transducing units) that was applied to the zoospores and measuring the total output of phage (as transducing units) that was recovered from the zoospores and expressing the result as a percentage. […]\nPhage vector was included as a control treatment. […] Phage eluted from the zoospore population were titered in E. coli K91BluKan cells and expressed as total transducing units. […]"}, "P. capsici cysts": {"tested_on": "P. capsici cysts", "experiment": "Binding of phage-displayed peptides to cysts (eluted phage titered as TU)", "parameters": "species or system Phytophthora capsici", "conditions": "5×10^10 TU phage"}, "U. appendiculatus": {"tested_on": "U. appendiculatus", "experiment": "Inhibition of germling (germinated uredospore) growth", "type": "cell-based, Uromyces appendiculatus", "conditions": "phage-peptide clones, ~250 germinated spores with 3×10^12 at 20 C overnight; listed as clone 19", "description": "Part D entails the generation of additional Sub-libraries by use of further rounds of biopanning including rounds 2, 3 and 4. Part B is repeated three times: • 1. For biopanning round 2, 4.2×10^11 TU phages from the 2nd Sub-library are used to produce Sub-library 3; • 2. For biopanning round 3, 5.6×10^11 TU phages amplified from the 2nd biopanning are used to produce Sub-library 4; and • 3. For biopanning round 4, 5.1×10^11 TU phages amplified from the 3rd biopanning are used to produce Sub-library 5. Colonies from biopanning-round 4 are picked, sequenced, and tested for inhibition of germling growth.\nPart E entails testing for inhibition of uredospore growth. Incubate 30 ul of germinated spores (˜250) with 3×10^12 at 20 C overnight. Assess fungal germ tube growth (i.e. germling growth) and compare with water and f88, i.e. phage only without any display peptide, as controls."}}}
{"sequence": "ADRPSMSPT (Random peptide insert) [Pc87]", "values": [{"measurement": "level of encystment of P. capsici zoospores", "setting": "P. capsici zoospores [1]", "value": "high levels of encystment"}, {"measurement": "phage eluted from zoospores", "setting": "P. capsici zoospores [2]", "value": "More than 10^7 TU"}, {"measurement": "phage eluted from cysts", "setting": "P. capsici cysts", "value": "less than 10^4 TU"}]}
{"sequence": "ADPPRTVST (Random peptide insert) [Pc78]", "values": [{"measurement": "level of encystment of P. capsici zoospores", "setting": "P. capsici zoospores [1]", "value": "high levels of encystment"}]}
{"sequence": "AEHQNSAGP (Random peptide insert) [Pc45]", "values": [{"measurement": "level of encystment of P. capsici zoospores", "setting": "P. capsici zoospores [1]", "value": "low levels of encystment"}, {"measurement": "phage eluted from zoospores", "setting": "P. capsici zoospores [2]", "value": "about 50,000 TU"}]}
{"sequence": "ADITDPMGA (Random peptide insert) [Pc64]", "values": [{"measurement": "level of encystment of P. capsici zoospores", "setting": "P. capsici zoospores [1]", "value": "high levels of encystment"}]}
{"sequence": "AAPDLQDAM (Random peptide insert) [Pc56]", "values": [{"measurement": "level of encystment of P. capsici zoospores", "setting": "P. capsici zoospores [1]", "value": "low levels of encystment"}]}
{"sequence": "NHVSTLKTRHRLIPF (Random peptide insert) [Pp 19]", "values": [{"measurement": "growth inhibition of U. appendiculatus (germlings)", "setting": "U. appendiculatus", "value": "inhibition"}]}
{"sequence": "AVSPNVHDG (Random peptide insert) [Pc42]", "values": [{"measurement": "level of encystment of P. capsici zoospores", "setting": "P. capsici zoospores [1]", "value": "high levels of encystment"}]}
{"sequence": "AGLTSPNDM (Random peptide insert) [Pc15B]", "values": [{"measurement": "level of encystment of P. capsici zoospores", "setting": "P. capsici zoospores [1]", "value": "low levels of encystment"}]}
